Results published in PMC3481155, “AhR activation underlies the CYP1A autoinduction by A-998679 in rats” (Frontiers in Genetics, 2012).

Legend:
rat Cyp1a1 = molecular target: T1, rat Cyp1a1 (Rattus norvegicus, UniProt P00185); test: Recombinant rat Cyp phenotype profiling, 1A1; type: in vitro ADME; details: recombinant rat Cyp 1A1 (200 pmol/ml), 60 min
T1 construct: purchased BD Gentest; host or cells: baculovirus infected insect cells
Method: Identification of the drug metabolizing enzymes (DMEs) of A-998679 was studied in cDNA expressed recombinant enzymes prepared from baculovirus infected insect cells over-expressing rat Cyp isoforms (BD Gentest, Woburn, MA) as listed in Table 2. Incubations were conducted in duplicate using Supersomes. The incubation mixture contained 100 pmol/ml of enzymes, except for Cyp1a1 (200 pmol/ml), 0.1 or 0.21 μM of [^3H]A-998679 in 100 mM phosphate buffer (pH 7.4). Reactions were initiated with the addition of NADPH at a final concentration of 1 mM and incubated at 37°C for 60 min. At the end of the incubation period, the incubations were terminated by the addition of acetonitrile/ethanol (50/50, v/v) solution. Insect control samples lacking expressed enzyme were used as negative control. The degree of metabolism of A-998679 was assessed by percent of parent remaining using the radio-HPLC method described below.
Radiolabeled components from the above assays were profiled following separation by HPLC with on line radioflow detector. The system consisted of an Agilent 1100 Series quaternary pump and autosampler connected to a Packard 500TR flow scintillation detector. The data were processed using the Radiomatic™ Flo-one® software v3.65. The scintillant (Perkin Elmer FLO-SCINT™ III) flow was maintained at 3 ml/min. […]

CYP2D6 = molecular target: T2, CYP2D6 (Homo sapiens, UniProt P10635); test: CYP inhibition evaluation in human liver microsomes, CYP2D6 (dextromethorphan); type: in vitro ADME; details: probe substrate dextromethorphan
T2 construct: from tissue; host or cells: human liver microsomes
Method: Incubations were performed in human liver microsomes using probe substrate concentrations similar to their corresponding Km values. Enzyme activity was evaluated in the presence of various concentrations of A-998679. The incubations consisted of the test article at varying concentrations (0–30 μM), probe substrate (concentration ~Km, see Table A2), human liver microsomal protein and 1 mM NADPH in 50 mM phosphate buffer at pH 7.4. Relative quantitation of the metabolites was obtained by LC-MS/MS using an ABSciex (Foster City, CA) API3000 or API4000 Qtrap hybrid linear ion trap mass spectrometer equipped with a TurboIonspray source using either PerkinElmer series 200 pumps or Agilent 1100 series pump with a Leap autosampler. Analytes were separated using a Phenomenex Prodigy ODS(3) 5 μm, 50 × 2.0 mm column at 50°C, eluted and detected under the specific conditions listed in Tables A3, A4, and A5. The analyte to internal standard peak area ratios were determined using Analyst 1.4 software (Applied Biosytems, Carlsbad, CA). The peak area ratios observed in the presence of test article were compared to the vehicle control in order to determine percent activity. To determine the IC50, the data were plotted as Log [dose] μM vs. % inhibition, and analyzed with a sigmoidal dose-response (variable slope) fitting equation. […]

T1 sequence (P00185 whole entry): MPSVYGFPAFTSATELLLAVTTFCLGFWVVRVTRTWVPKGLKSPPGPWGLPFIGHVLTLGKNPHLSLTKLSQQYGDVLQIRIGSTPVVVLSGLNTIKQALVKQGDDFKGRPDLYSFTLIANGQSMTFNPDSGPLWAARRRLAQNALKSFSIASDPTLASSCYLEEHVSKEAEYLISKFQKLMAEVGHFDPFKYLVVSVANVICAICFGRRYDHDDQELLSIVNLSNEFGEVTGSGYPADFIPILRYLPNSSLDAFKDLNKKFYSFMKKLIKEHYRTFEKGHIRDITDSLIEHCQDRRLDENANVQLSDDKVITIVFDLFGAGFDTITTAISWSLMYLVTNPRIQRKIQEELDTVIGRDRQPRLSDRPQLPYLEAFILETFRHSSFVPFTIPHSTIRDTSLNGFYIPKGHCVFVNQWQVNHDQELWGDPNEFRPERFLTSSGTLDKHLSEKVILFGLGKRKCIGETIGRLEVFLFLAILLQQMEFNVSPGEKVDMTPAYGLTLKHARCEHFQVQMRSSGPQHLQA
T2 sequence (P10635 whole entry): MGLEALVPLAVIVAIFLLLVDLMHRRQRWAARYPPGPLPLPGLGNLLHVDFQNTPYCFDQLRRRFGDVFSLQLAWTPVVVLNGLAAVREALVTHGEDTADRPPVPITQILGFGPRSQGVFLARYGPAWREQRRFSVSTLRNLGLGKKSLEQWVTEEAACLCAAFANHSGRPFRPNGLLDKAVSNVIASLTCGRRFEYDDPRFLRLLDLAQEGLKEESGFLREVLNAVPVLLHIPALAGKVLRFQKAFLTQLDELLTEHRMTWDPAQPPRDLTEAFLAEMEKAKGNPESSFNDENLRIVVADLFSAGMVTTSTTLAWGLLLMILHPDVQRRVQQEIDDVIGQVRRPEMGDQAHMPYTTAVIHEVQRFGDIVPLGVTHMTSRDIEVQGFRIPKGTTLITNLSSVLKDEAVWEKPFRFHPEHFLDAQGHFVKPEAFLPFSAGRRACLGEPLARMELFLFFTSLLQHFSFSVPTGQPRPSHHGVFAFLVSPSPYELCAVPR

% parent remaining (rat Cyp1a1; 0.10 μM): 0%
% parent remaining (rat Cyp1a1; 0.21 μM): 0%
IC50 (CYP2D6): > 30 µM
SMILES: N#Cc1cccc(-c2noc(-c3cccnc3)n2)c1 [A-998679, 3-(5-pyridin-3-yl-1,2,4-oxadiazol-3-yl) benzonitrile]
